Measurements as given in ChEMBL document CHEMBL1201862, “PubChem BioAssay data set” (2004).
Activity calls are given as the source filed them.

Assays:
[1] = inhibitors of firefly luciferase expression or activity, dose response, H4 neuroglioma cells, luminescence (AID 1990); assay type: functional, cell-based
[2] = biological target: T1, Leucine aminopeptidase (Plasmodium falciparum 3D7, UniProt Q8IL11); assay: P. falciparum M17LAP inhibitors, primary screen, biochemical, fluorogenic H-Leu-NHMec substrate, 1536-well (AID 1619); assay type: functional
T1 sequence (Q8IL11 whole entry): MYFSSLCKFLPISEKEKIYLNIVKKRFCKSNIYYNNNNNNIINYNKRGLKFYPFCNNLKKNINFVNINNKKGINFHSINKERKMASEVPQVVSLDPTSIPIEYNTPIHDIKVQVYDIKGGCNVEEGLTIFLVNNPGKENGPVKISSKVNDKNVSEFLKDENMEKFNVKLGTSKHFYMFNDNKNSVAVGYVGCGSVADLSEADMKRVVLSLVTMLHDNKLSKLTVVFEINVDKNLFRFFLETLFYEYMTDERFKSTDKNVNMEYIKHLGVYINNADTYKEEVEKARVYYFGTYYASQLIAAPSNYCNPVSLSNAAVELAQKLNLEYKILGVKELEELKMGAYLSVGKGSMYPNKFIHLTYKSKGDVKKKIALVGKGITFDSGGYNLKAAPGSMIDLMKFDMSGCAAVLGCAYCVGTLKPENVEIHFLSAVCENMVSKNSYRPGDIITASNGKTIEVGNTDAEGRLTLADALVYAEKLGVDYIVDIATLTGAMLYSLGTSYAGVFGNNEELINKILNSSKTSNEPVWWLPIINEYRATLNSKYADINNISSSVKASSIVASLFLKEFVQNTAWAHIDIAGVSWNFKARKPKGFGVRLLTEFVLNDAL

[3] = biological target: T2, Microphthalmia-associated transcription factor (Homo sapiens, UniProt O75030); assay: TRPM1 promoter luciferase signal decrease, dose response, MITF inhibitor project, cell-based, SK-MEL-5, cherry-picked, set 3 (AID 493073); assay type: functional
T2 sequence (O75030 whole entry): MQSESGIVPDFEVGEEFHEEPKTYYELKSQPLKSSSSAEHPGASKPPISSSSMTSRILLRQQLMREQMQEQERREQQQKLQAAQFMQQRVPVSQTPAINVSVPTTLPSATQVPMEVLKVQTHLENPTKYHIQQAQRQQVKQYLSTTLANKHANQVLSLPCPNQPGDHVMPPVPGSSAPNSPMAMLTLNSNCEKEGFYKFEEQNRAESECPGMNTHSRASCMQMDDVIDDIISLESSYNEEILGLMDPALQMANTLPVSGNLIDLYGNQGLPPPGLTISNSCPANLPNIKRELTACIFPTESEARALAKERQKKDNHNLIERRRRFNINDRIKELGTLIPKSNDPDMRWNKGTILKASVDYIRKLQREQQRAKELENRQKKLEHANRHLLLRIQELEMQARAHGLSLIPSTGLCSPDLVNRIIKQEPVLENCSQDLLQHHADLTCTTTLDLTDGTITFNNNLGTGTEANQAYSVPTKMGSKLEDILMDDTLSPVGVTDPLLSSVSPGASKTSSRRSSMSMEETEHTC

[4] = inhibitors of SNCA 5'UTR-driven reporter translation, confirmation, H4 neuroglioma cells, luminescence (AID 1988); assay type: functional, cell-based
[5] = biological target: Heat shock protein HSP 90-alpha (Homo sapiens, UniProt P07900); assay: Luminescence-based dose response biochemical high throughput screening assay for inhibitors of the Heat Shock Protein 90 (HSP90). [Related pubchem assays: 1831 (Summary AID.), 1846 (Confirmation screen.), 1789 (Primary screen.)]
[6] = test system: Jurkat; assay: antigen receptor-induced NF-kB inhibitors, dose response, Jurkat, luciferase reporter, luminescence, B- and T-cell (AID 489004); assay type: functional, cell-based; details: Homo sapiens;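 further: NF-kB luciferase reporter Jurkat cells stimulated with PMA plus ionomycin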
[7] = Luminescence Cell-Based Dose Response HTS to Identify Inhibitors of 5'UTR Stem-Loop Driven Prion Protein mRNA Translation in H4 Neuroglioblastoma Cells. [Related pubchem assays: 1827 (Project Summary), 1813 (Primary HTS)]; assay type: functional
[8] = biological target: Glyceraldehyde-3-phosphate dehydrogenase (Homo sapiens, UniProt P04406)
[9] = Luminescence-based counterscreen assay for KLF5 inhibitors: dose response cell-based high throughput screening assay to identify cytotoxic compounds using the IEC-6 intestinal epithelial cell line. [Related pubchem assays: 1700 (Primary screen.), 1834 (Confirmation screen.), 1858 (Summary AID.), 1905 (Counterscreen.)]; assay type: functional
[10] = biological target: T3, Heat shock factor protein 1 (Mus musculus, UniProt P38532); assay: inhibition of MG132-induced HSE-luciferase signal, confirmation, cell-based, NIH3T3, luminescence, dose retest (AID 2382); assay type: functional;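 further: NIH3T3 fibroblasts with HSF1-driven luciferase reporter stressed by proteasome inhibitor MG132; luminescence from HSF1-driven luciferase expression after 8 hours of MG132 stress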
T3 sequence (P38532 whole entry): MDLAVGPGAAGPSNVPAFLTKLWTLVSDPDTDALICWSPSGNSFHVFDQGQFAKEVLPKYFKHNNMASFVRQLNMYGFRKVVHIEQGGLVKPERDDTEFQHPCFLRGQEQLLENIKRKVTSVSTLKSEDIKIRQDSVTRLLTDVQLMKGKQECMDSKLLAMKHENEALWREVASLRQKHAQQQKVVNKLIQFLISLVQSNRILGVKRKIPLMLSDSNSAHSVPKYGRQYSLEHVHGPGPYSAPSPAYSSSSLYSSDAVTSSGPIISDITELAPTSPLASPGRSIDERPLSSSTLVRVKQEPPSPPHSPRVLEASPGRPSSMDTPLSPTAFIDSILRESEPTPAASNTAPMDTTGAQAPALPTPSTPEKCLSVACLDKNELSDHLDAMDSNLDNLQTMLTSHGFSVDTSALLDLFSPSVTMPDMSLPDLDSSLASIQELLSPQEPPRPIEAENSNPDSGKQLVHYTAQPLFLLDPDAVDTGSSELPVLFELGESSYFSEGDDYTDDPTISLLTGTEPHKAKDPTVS

[11] = test system: HT-1080; assay: cytotoxicity in HT1080 fibrosarcoma cells, cell-based, fluorescence readout (AID 620); assay type: functional; details: Homo sapiens
[12] = cytotoxicity in HEK-293T NF-kB-Luc cells, dose response, cytotoxicity control for B/T-cell NF-kB inhibitor project, cell-based, uHTS hits (AID 489019); assay type: functional;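 further: IC50 reflects cytotoxicity as loss of cell viability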
[13] = biological target: Luciferin 4-monooxygenase (Photinus pyralis, UniProt P08659); assay: Counter Screen for Luciferase-based Assay Positives. [Related pubchem assays: 620, 618, 411 ]
Chain of Luciferin 4-monooxygenase (P08659 whole entry): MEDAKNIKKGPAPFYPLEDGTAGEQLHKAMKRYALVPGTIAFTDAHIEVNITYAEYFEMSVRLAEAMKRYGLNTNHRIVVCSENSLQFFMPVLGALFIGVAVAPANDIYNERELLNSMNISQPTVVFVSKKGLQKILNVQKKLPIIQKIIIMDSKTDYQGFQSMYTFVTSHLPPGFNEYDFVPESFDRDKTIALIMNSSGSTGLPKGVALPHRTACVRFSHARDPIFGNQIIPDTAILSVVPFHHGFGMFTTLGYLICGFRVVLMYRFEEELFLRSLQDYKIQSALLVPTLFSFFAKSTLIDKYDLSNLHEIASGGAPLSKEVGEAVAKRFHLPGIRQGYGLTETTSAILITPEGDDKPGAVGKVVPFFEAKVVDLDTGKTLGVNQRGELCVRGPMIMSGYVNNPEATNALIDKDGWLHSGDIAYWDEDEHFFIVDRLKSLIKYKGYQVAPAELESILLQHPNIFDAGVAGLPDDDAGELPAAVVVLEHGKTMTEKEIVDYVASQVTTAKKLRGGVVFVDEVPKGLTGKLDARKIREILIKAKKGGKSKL

Chain of Glyceraldehyde-3-phosphate dehydrogenase (P04406 whole entry): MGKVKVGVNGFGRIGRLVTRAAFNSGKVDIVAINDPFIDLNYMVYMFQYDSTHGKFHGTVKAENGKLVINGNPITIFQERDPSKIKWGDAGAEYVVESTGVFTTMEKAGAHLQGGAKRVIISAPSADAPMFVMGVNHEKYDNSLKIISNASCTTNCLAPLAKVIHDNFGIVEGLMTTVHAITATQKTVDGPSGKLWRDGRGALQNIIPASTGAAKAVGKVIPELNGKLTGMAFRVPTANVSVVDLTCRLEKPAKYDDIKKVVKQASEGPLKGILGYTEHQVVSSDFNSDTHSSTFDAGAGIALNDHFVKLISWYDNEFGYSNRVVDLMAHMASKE

With `O=C(O)CSCC(=O)Nc1ccc(C2CCCCC2)cc1` the EC50 [1] was 0.101 µM (active), the IC50 [2] was 12.6 µM (active) and the AC50 [3] was 2.12 µM (active). The EC50 [4] was 2.2 µM (active), the IC50 [5] was > 60 µM (not active) and the IC50 [6] was 0.26 µM (active). The EC50 [7] was 0.395 µM (active), the IC50 [8] was > 100 µM (not active) and the IC50 [9] was > 39.8 µM (not active). For the same compound, the EC50 [10] was 0.415 µM (active), the EC50 [11] was > 50 µM (not active) and the IC50 [12] was > 80 µM (inactive). For the same compound, the EC50 [13] was 3.61 µM (active).
